pIC50: −log10 of the molar value.
Columns and labels:
[1] = biological target: T1, Recombinant STAT3 protein (STAT3(G127-I722)) (Homo sapiens, UniProt P40763); experiment: STAT3 Fluorescence Polarization (FP) Assay; format: binding; conditions: STAT3(G127-I722) 25 nM, probe 5-FAM-GpYLPQTV-NH2 2 nM, 45-minute incubation
T1 construct: STAT3(G127-I722)
Procedure: STAT3 Fluorescence Polarization (FP) Assay
An FP assay was developed to determine IC50 values for test substances. Recombinant STAT3 protein (STAT3(G127-I722)) at 25 nM was combined with a fluorescently labeled, phosphotyrosine peptide probe (5-FAM-GpYLPQTV-NH2) at 2 nM in FP buffer (10 mM HEPES pH 7.4, 50 mM NaCl, 1 mM EDTA, 0.05% Tween 20, 2 mM DTT). 50 μL of STAT3-probe mixture was added to serial diluted compounds in black, 96-well plates (Greiner BioOne 655076) to a final concentration of 1% DMSO. Reaction components were mixed, and FP was measured after 45-minute incubation at room temperature using a Tecan Spark multimode plate reader. FP signal (mP) was plotted against the log concentration of the test substances and IC50 values were calculated by nonlinear regression analysis using GraphPad Prism software. For STAT3 FP assay, A=≤100 nM; B=>100-1000 nM; C=>1-10 μM; and D=>10 μM.

[2] = biological target: T2, Recombinant STAT6 protein (STAT6(W123-T658)) (Homo sapiens, UniProt P42226); experiment: STAT6 Fluorescence Polarization (FP) Assay; format: binding; conditions: STAT6(W123-T658) 250 nM, probe 5-FAM-ApYKPFQDLI-NH2 2 nM, 45-minute incubation
T2 construct: STAT6(W123-T658)
T2 sequence (P42226 123-658): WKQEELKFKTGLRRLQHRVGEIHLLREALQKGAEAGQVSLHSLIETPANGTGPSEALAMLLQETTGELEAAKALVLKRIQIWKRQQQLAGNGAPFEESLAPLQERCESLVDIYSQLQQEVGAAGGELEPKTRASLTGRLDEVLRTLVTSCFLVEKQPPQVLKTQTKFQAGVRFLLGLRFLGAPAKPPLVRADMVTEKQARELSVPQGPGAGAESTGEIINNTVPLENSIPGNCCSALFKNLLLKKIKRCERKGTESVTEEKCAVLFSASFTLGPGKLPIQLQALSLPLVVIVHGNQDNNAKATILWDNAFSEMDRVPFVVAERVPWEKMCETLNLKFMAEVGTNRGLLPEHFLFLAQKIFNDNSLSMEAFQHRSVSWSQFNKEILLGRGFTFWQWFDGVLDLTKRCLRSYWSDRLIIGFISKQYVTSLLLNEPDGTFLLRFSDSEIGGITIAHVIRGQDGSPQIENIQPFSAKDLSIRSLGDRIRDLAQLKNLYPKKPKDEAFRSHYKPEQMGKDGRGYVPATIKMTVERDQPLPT
Procedure: STAT6 Fluorescence Polarization (FP) Assay
An FP assay was developed to determine IC50 values for test substances. Recombinant STAT6 protein (STAT6(W123-T658)) at 250 nM was combined with a fluorescently labeled, phosphotyrosine peptide probe (5-FAM-ApYKPFQDLI-NH2) at 2 nM in FP buffer (10 mM HEPES pH 7.4, 50 mM NaCl, 1 mM EDTA, 0.05% Tween 20, 2 mM DTT). 50 μL of STAT6-probe mixture was added to serial diluted compounds in black, 96-well plates (Greiner BioOne 655076) to a final concentration of 1% DMSO. Reaction components were mixed, and FP was measured after 45-minute incubation at room temperature using a Tecan Spark multimode plate reader. FP signal (mP) was plotted against the log concentration of the test substances and IC50 values were calculated by nonlinear regression analysis using GraphPad Prism software. For STAT6 FP assay, A=≤300 nM; B=>300-3000 nM; C=>3-30 μM; and D=>30 μM.

T1 sequence (P40763 127-722, species assumed): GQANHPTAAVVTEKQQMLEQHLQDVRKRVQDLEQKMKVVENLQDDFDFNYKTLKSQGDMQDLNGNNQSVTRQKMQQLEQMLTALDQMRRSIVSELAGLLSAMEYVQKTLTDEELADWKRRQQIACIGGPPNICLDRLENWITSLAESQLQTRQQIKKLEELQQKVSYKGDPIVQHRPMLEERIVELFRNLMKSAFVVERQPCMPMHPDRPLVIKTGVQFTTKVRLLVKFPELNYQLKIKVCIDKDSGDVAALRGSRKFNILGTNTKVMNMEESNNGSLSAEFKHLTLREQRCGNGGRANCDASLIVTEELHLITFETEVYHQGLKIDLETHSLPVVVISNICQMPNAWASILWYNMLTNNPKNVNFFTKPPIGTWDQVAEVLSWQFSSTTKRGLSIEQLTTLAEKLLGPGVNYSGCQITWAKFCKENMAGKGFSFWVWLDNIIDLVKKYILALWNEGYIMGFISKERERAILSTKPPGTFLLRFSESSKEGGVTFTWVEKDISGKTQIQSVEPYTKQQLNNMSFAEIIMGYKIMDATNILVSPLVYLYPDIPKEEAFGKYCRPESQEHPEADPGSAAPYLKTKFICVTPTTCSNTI

O=C(N[C@H]1C[C@@H]2C[C@@H]2C[C@H]2CC[C@@H](C(=O)N[C@@H]3CCN(c4cccnc4)C3)N2C1=O)c1cc2cc(C(F)(F)P(=O)(O)O)ccc2s1 [Compound 112, (difluoro(2-(((3S,6S,7aS,8aR,9aR)-5-oxo-3-(((R)-1-(pyridin-3-yl)pyrrolidin-3-yl)carbamoyl)decahydro-1H-cyclopropa[d]pyrrolo[1,2-a]azocin-6-yl)carbamoyl)benzo[b]thiophen-5-yl)methyl)phosphonic acid]
pIC50 [1]: > 7.00
pIC50 [2]: 5.52 to 6.52

O=C(N[C@H]1C[C@@H]2C[C@@H]2C[C@H]2CC[C@@H](C(=O)N3CC(N4CCS(=O)(=O)CC4)C3)N2C1=O)c1cc2cc(C(F)(F)P(=O)(O)O)ccc2s1 [Compound 108, ((2-(((3S,6S,7aS,8aR,9aR)-3-(3-(1,1-dioxidothiomorpholino)azetidine-1-carbonyl)-5-oxodecahydro-1H-cyclopropa[d]pyrrolo[1,2-a]azocin-6-yl)carbamoyl)benzo[b]thiophen-5-yl)difluoromethyl)phosphonic acid]
pIC50 [1]: > 7.00
pIC50 [2]: 4.52 to 5.52

C[C@@H]1CN(C(=O)C2CN(C(=O)[C@@H]3CC[C@@H]4C[C@H]5C[C@H]5C[C@H](NC(=O)c5cc6cc(C(F)(F)P(=O)(O)O)ccc6s5)C(=O)N43)C2)CCO1 [Example 1, (difluoro(2-(((3S,6S,7aS,8aR,9aR)-3-(3-((R)-2-methylmorpholine-4-carbonyl)azetidine-1-carbonyl)-5-oxodecahydro-1H-cyclopropa[d]pyrrolo[1,2-a]azocin-6-yl)carbamoyl)benzo[b]thiophen-5-yl)methyl)phosphonic acid]
pIC50 [1]: > 7.00
pIC50 [2]: 4.52 to 5.52

CC(=O)N1CC2C1CCN2C(=O)[C@@H]1CC[C@@H]2C[C@H]3C[C@H]3C[C@H](NC(=O)c3cc4cc(CP(=O)(O)O)ccc4s3)C(=O)N21 (stereo partly drawn) [Example 260, ((2-(((3S,6S,7aS,8aR,9aR)-3-(6-acetyl-2,6-diazabicyclo[3.2.0]heptane-2-carbonyl)-5-oxodecahydro-1H-cyclopropa[d]pyrrolo[1,2-a]azocin-6-yl)carbamoyl)benzo[b]thiophen-5-yl)methyl)phosphonic acid]
pIC50 [1]: 5.00 to 6.00
pIC50 [2]: < 4.52

Cc1cccc(C2CN(C(=O)[C@@H]3CC[C@@H]4C[C@@H]5C[C@@H]5C[C@H](NC(=O)c5cc6cc([C@H](F)P(=O)(O)O)ccc6s5)C(=O)N43)C2)n1 (single isomer, unassigned) [Example 370]
pIC50 [1]: > 7.00
pIC50 [2]: 4.52 to 5.52

CN(C)c1ccncc1[C@@H]1CN(C(=O)[C@@H]2CC[C@@H]3C[C@H]4C[C@H]4C[C@H](NC(=O)c4cc5cc([C@H](F)P(=O)(O)O)ccc5s4)C(=O)N32)C2(CC2)C1 (single isomer, unassigned) [Example 433]
pIC50 [1]: > 7.00
pIC50 [2]: 5.52 to 6.52

O=C(N[C@H]1C[C@@H]2C[C@@H]2C[C@H]2CC[C@@H](C(=O)N[C@@H]3CCN(c4cccnn4)C3)N2C1=O)c1cc2cc(C(F)(F)P(=O)(O)O)ccc2s1 [Compound 51, (difluoro(2-(((3S,6S,7aS,8aR,9aR)-5-oxo-3-(((R)-1-(pyridazin-3-yl)pyrrolidin-3-yl)carbamoyl)decahydro-1H-cyclopropa[d]pyrrolo[1,2-a]azocin-6-yl)carbamoyl)benzo[b]thiophen-5-yl)methyl)phosphonic acid]
pIC50 [1]: > 7.00
pIC50 [2]: 5.52 to 6.52

O=C(N[C@H]1C[C@@H]2C[C@@H]2C[C@H]2CC[C@@H](C(=O)N3CCN(C4COC4)c4ccccc43)N2C1=O)c1cc2cc(C(F)P(=O)(O)O)ccc2s1 (stereo partly drawn) [Example 387, (fluoro(2-(((3S,6S,7aS,8aR,9aR)-3-(4-(oxetan-3-yl)-1,2,3,4-tetrahydroquinoxaline-1-carbonyl)-5-oxodecahydro-1H-cyclopropa[d]pyrrolo[1,2-a]azocin-6-yl)carbamoyl)benzo[b]thiophen-5-yl)methyl)phosphonic acid]
pIC50 [1]: 5.00 to 6.00
pIC50 [2]: 4.52 to 5.52

O=C(N[C@H]1C[C@@H]2C[C@@H]2C[C@H]2CC[C@@H](C(=O)N[C@H]3CN(c4ncccn4)C[C@@H]3F)N2C1=O)c1cc2cc(CP(=O)(O)O)ccc2s1 [Example 257, ((2-(((3S,6S,7aS,8aR,9aR)-3-(((3S,4S)-4-fluoro-1-(pyrimidin-2-yl)pyrrolidin-3-yl)carbamoyl)-5-oxodecahydro-1H-cyclopropa[d]pyrrolo[1,2-a]azocin-6-yl)carbamoyl)benzo[b]thiophen-5-yl)methyl)phosphonic acid]
pIC50 [1]: < 5.00
pIC50 [2]: 4.52 to 5.52

Cc1cccc(C2CN(C(=O)[C@@H]3CC[C@@H]4C[C@@H]5C[C@@H]5C[C@H](NC(=O)c5cc6cc(C(F)(F)P(=O)(O)O)ccc6s5)C(=O)N43)C2)c1 [Compound 68, (difluoro(2-(((3S,6S,7aR,8aS,9aR)-5-oxo-3-(3-(m-tolyl)azetidine-1-carbonyl)decahydro-1H-cyclopropa[d]pyrrolo[1,2-a]azocin-6-yl)carbamoyl)benzo[b]thiophen-5-yl)methyl)phosphonic acid]
pIC50 [1]: > 7.00
pIC50 [2]: 5.52 to 6.52

Cc1ccncc1C1CN(C(=O)[C@@H]2CC[C@@H]3C[C@@H]4C[C@@H]4C[C@H](NC(=O)c4cc5cc(C(F)P(=O)(O)O)ccc5s4)C(=O)N32)C1 (stereo partly drawn) [Example 320, (fluoro(2-(((3S,6S,7aR,8aS,9aR)-3-(3-(4-methylpyridin-3-yl)azetidine-1-carbonyl)-5-oxodecahydro-1H-cyclopropa[d]pyrrolo[1,2-a]azocin-6-yl)carbamoyl)benzo[b]thiophen-5-yl)methyl)phosphonic acid]
pIC50 [1]: > 7.00
pIC50 [2]: 4.52 to 5.52

CO[C@@H]1CCN(C(=O)C2CN(C(=O)[C@@H]3CC[C@@H]4C[C@H]5C[C@H]5C[C@H](NC(=O)c5cc6cc(C(F)(F)P(=O)(O)O)ccc6s5)C(=O)N43)C2)C1 [Compound 114, (difluoro(2-(((3S,6S,7aS,8aR,9aR)-3-(3-((R)-3-methoxypyrrolidine-1-carbonyl)azetidine-1-carbonyl)-5-oxodecahydro-1H-cyclopropa[d]pyrrolo[1,2-a]azocin-6-yl)carbamoyl)benzo[b]thiophen-5-yl)methyl)phosphonic acid]
pIC50 [1]: > 7.00
pIC50 [2]: 4.52 to 5.52

O=C(N[C@H]1C[C@@H]2C[C@@H]2C[C@H]2CC[C@@H](C(=O)N3CC(c4nn[nH]n4)C3)N2C1=O)c1cc2cc(C(F)(F)P(=O)(O)O)ccc2s1 [Compound 103, ((2-(((3S,6S,7aS,8aR,9aR)-3-(3-(2H-tetrazol-5-yl)azetidine-1-carbonyl)-5-oxodecahydro-1H-cyclopropa[d]pyrrolo[1,2-a]azocin-6-yl)carbamoyl)benzo[b]thiophen-5-yl)difluoromethyl)phosphonic acid]
pIC50 [1]: 6.00 to 7.00
pIC50 [2]: 5.52 to 6.52

O=C(N[C@H]1C[C@H]2C[C@H]2C[C@H]2CC[C@@H](C(=O)N3CC(c4c[nH]cn4)C3)N2C1=O)c1cc2cc(C(F)(F)P(=O)(O)O)ccc2s1 [Compound 54, ((2-(((3S,6S,7aR,8aS,9aR)-3-(3-(1H-imidazol-4-yl)azetidine-1-carbonyl)-5-oxodecahydro-1H-cyclopropa[d]pyrrolo[1,2-a]azocin-6-yl)carbamoyl)benzo[b]thiophen-5-yl)difluoromethyl)phosphonic acid]
pIC50 [1]: > 7.00
pIC50 [2]: 5.52 to 6.52

N#Cc1ccc(C2CN(C(=O)[C@@H]3CC[C@@H]4C[C@@H]5C[C@@H]5C[C@H](NC(=O)c5cc6cc(C(F)(F)P(=O)(O)O)ccc6s5)C(=O)N43)C2)cc1 [Compound 74, ((2-(((3S,6S,7aR,8aS,9aR)-3-(3-(4-cyanophenyl)azetidine-1-carbonyl)-5-oxodecahydro-1H-cyclopropa[d]pyrrolo[1,2-a]azocin-6-yl)carbamoyl)benzo[b]thiophen-5-yl)difluoromethyl)phosphonic acid]
pIC50 [1]: > 7.00
pIC50 [2]: 5.52 to 6.52

Source: patent US20250215030A1, “STAT MODULATORS AND USES THEREOF” (Recludix Pharma, Inc., priority 2022, published 2025)
